# Biological target: human RAF1 (Homo sapiens (Human), UniProt P04049)
# Experiment: Protein kinase assay (radiometric 33P-ATP, MEK1 (K97R) substrate), RAF-1
# Assay type: biochemical
# Conditions: human MEK1 (K97R) substrate 3 micromolar, ATP 10 micromolar; 10-dose, 3-fold serial dilution starting at 10 micromolar; read-out: RAF-1 IC50
# Experimental: Example 1: Kinase Assay Protocol
# Assay platform was used to measure kinase/inhibitor interactions as described previously (Anastassiadis et al., 2011). In brief, for each reaction, kinase and substrate were mixed in a buffer containing 20 mM HEPES (pH 7.5), 10 mM MgCl2, 1 mM EGTA, 0.02% Brij35, 0.02 mg/mL BSA, 0.1 mM Na3VO4, 2 mM DTT, and 1% DMSO. All compounds were solubilized in DMSO. Compounds were then added to each reaction mixture via acoustic dispense using an ECHO 550 nanoliter dispenser. For human RAF1 testing, human MEK1 (K97R) was used as a substrate at a concentration of 3 micromolar, with a final ATP concentration of 10 micromolar. For human BRAF testing, human MEK1 (K97R) was used as a substrate at 1 micromolar concentration, with a final ATP concentration of 25 micromolar. […] After a 20-min incubation, ATP (Sigma-Aldrich, St. Louis, Mo. 63178) and [g33P] ATP (specific activity 10 microCi/microliter) purchased at PerkinElmer (Boston, Mass., 02118 Cat #BLU 003H250UC) were added at a final total concentration of […]. Reactions were carried out at room temperature for 2 hr and spotted onto P81 ion exchange cellulose chromatography paper (Reaction Biology). Filter paper was washed in 0.75% phosphoric acid to remove unincorporated ATP. The percent remaining kinase activity relative to a vehicle-containing (DMSO) kinase reaction was calculated for each kinase/inhibitor pair. IC50 values were calculated using Prism 5 (GraphPad).
# human RAF1, sequence (P04049 whole entry): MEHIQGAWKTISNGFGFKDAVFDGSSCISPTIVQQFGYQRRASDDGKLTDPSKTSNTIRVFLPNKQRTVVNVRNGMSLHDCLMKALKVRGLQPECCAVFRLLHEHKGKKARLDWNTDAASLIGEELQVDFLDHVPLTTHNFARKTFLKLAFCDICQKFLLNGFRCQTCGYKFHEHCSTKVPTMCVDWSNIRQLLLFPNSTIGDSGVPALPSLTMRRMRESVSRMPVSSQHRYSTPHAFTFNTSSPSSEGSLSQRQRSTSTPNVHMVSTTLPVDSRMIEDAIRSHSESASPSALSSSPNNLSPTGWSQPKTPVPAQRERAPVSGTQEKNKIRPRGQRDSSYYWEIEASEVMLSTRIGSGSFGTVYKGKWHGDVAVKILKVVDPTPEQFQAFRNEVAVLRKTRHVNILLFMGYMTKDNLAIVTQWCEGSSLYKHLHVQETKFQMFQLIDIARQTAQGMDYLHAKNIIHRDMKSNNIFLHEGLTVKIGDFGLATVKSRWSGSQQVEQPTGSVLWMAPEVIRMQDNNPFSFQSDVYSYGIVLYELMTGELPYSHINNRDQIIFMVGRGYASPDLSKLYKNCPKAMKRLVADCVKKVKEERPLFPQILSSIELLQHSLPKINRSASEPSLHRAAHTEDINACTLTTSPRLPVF
row,SMILES,IC50 [nM]
1,"Cc1ccc(NC(=O)N2CC[C@@H](CC(F)(F)F)C2)cc1-c1cc(-c2cncs2)nc(N2CCOCC2)c1 [Example 15, (3S)—N-[4-methyl-3-[2-(morpholin-4-yl)-6-(1,3-thiazol-5-yl)pyridin-4-yl]phenyl]-3-(2,2,2-trifluoroethyl)pyrrolidine-1-carboxamide]",1 to 10
2,"Cc1ccc(NC(=O)N2CC[C@@H](CC(F)(F)F)C2)cc1-c1cc(C(=O)N2CC(O)C2)nc(N2CCOCC2)c1 [Example 20, (3S)—N-[3-[2-(3-hydroxyazetidine-1-carbonyl)-6-(morpholin-4-yl)pyridin-4-yl]-4-methylphenyl]-3-(2,2,2-trifluoroethyl)pyrrolidine-1-carboxamide]",< 1
3,"Cc1cc(F)c(NC(=O)N2CC[C@@H](C(C)(F)F)C2)cc1-c1cc(-c2cnn(C)c2)nc(N2CCOCC2)c1 (single isomer, unassigned) [Example 84]",< 1
4,"Cc1cc(F)c(NC(=O)N2CC=C(CC(F)(F)F)C2)cc1-c1cc(-c2cnn(C)c2)nc(N2CCOCC2)c1 [Example 77, N-{2-fluoro-4-methyl-5-[2-(1-methylpyrazol-4-yl)-6-(morpholin-4-yl)pyridin-4-yl]phenyl}-3-(2,2,2-trifluoroethyl)-2,5-dihydropyrrole-1-carboxamide]",< 1
5,"Cc1ccc(NC(=O)N2CC[C@@H](CC(F)(F)F)C2)cc1-c1cc(C#CC(C)(C)O)nc(N2CCOCC2)c1 [Example 10, (3S)—N-[3-[2-(3-hydroxy-3-methylbut-1-yn-1-yl)-6-(morpholin-4-yl)pyridin-4-yl]-4-methylphenyl]-3-(2,2,2-trifluoroethyl)pyrrolidine-1-carboxamide]",1 to 10
6,"Cc1ccc(NC(=O)N2CC[C@@H](CC(F)(F)F)C2)cc1-c1cc(-c2c[nH]cn2)nc(N2CCOCC2)c1 [Example 53, (3S)—N-[3-[2-(1H-imidazol-4-yl)-6-(morpholin-4-yl)pyridin-4-yl]-4-methylphenyl]-3-(2,2,2-trifluoroethyl)pyrrolidine-1-carboxamide]",1 to 10
7,"Cc1cc(F)c(NC(=O)N2CC[C@H](C(C)(C)C)C2)cc1-c1cc(-c2cnn(C)c2)nc(N2CCOCC2)c1 [Example 83, (3R)-3-tert-butyl-N-{2-fluoro-4-methyl-5-[2-(1-methylpyrazol-4-yl)-6-(morpholin-4-yl)pyridin-4-yl]phenyl}pyrrolidine-1-carboxamide]",1 to 10
8,"Cc1ccc(NC(=O)N2CC[C@@H](CC(F)(F)F)C2)cc1-c1cc(-c2cn(C)cn2)nc(N2CCOCC2)c1 [Example 54, (3S)—N-{4-methyl-3-[2-(1-methylimidazol-4-yl)-6-(morpholin-4-yl)pyridin-4-yl]phenyl}-3-(2,2,2-trifluoroethyl)pyrrolidine-1-carboxamide]",1 to 10
9,"Cc1ccc(NC(=O)N2CC[C@@H](CC(F)(F)F)C2)cc1-c1cc(/C=C/[C@@H](C)O)nc(N2CCOCC2)c1 [Example 17, (3S)—N-(3-[2-[(1E,3R)-3-hydroxybut-1-en-1-yl]-6-(morpholin-4-yl)pyridin-4-yl]-4-methylphenyl)-3-(2,2,2-trifluoroethyl)pyrrolidine-1-carboxamide]",1 to 10
10,"Cc1ccc(NC(=O)N2CC[C@@H](CC(F)(F)F)C2)cc1-c1cc(C2=CCN(C)CC2)nc(N2CCOCC2)c1 [Example 31, (3S)—N-[4-methyl-3-[1′-methyl-6-(morpholin-4-yl)-3′,6′-dihydro-2′H-[2,4′-bipyridin]-4-yl]phenyl]-3-(2,2,2-trifluoroethyl)pyrrolidine-1-carboxamide]",10 to 100
11,"Cc1ccc(NC(=O)N2CC[C@@H](CC(F)(F)F)C2)cc1-c1cc(N2CCOCC2)nc(C(F)(F)F)c1 [Example 56, (3S)—N-[4-methyl-3-[2-(morpholin-4-yl)-6-(trifluoromethyl)pyridin-4-yl]phenyl]-3-(2,2,2-trifluoroethyl)pyrrolidine-1-carboxamide]",1 to 10
12,"Cc1ccc(NC(=O)N2CC[C@@H](CC(F)(F)F)C2)cc1-c1cc(-c2cnc(N)[nH]2)nc(N2CCOCC2)c1 [Example 43, (3S)—N-[3-[2-(2-amino-3H-imidazol-4-yl)-6-(morpholin-4-yl)pyridin-4-yl]-4-methylphenyl]-3-(2,2,2-trifluoroethyl)pyrrolidine-1-carboxamide]",1 to 10
13,"Cc1ccc(NC(=O)N2CCO[C@@H](C(F)(F)F)C2)cc1-c1cc(-c2ccnn2C)nc(N2CCOCC2)c1 [Example 65, (2R)—N-{4-methyl-3-[2-(2-methylpyrazol-3-yl)-6-(morpholin-4-yl)pyridin-4-yl]phenyl}-2-(trifluoromethyl)morpholine-4-carboxamide]",< 1
14,"Cc1ccc(NC(=O)N2CC[C@@H](CC(F)(F)F)C2)cc1-c1cc(C2CCCN(C)C2)nc(N2CCOCC2)c1 (stereo partly drawn) [Example 29, (3S)—N-[4-methyl-3-[2-(1-methylpiperidin-3-yl)-6-(morpholin-4-yl)pyridin-4-yl]phenyl]-3-(2,2,2-trifluoroethyl)pyrrolidine-1-carboxamide]",1 to 10
15,"Cc1ccc(NC(=O)N2CC[C@@H](CC(F)(F)F)C2)cc1-c1cc(-c2cn[nH]c2)nc(N2CCOCC2)c1 [Example 33, (3S)—N-[4-methyl-3-[2-(morpholin-4-yl)-6-(1H-pyrazol-4-yl)pyridin-4-yl]phenyl]-3-(2,2,2-trifluoroethyl)pyrrolidine-1-carboxamide]",< 1
16,"Cc1ccc(NC(=O)N2CC[C@@H](CC(F)(F)F)C2)cc1-c1cc(-c2ccn(C)n2)nc(N2CCOCC2)c1 [Example 36, (3S)—N-[4-methyl-3-[2-(1-methylpyrazol-3-yl)-6-(morpholin-4-yl)pyridin-4-yl]phenyl]-3-(2,2,2-trifluoroethyl)pyrrolidine-1-carboxamide]",< 1
17,"Cc1cc(F)c(NC(=O)N2CC=C(C(F)(F)C(F)(F)F)C2)cc1-c1cc(-c2cnn(C)c2)nc(N2CCOCC2)c1 [Example 79, N-{2-fluoro-4-methyl-5-[2-(1-methylpyrazol-4-yl)-6-(morpholin-4-yl)pyridin-4-yl]phenyl}-3-(1,1,2,2,2-pentafluoroethyl)-2,5-dihydropyrrole-1-carboxamide]",1 to 10
18,"Cc1ccc(NC(=O)N2CC[C@@H](CC(F)(F)F)C2)cc1-c1cc(N2CCOCC2)nc(C(C)(C)O)c1 [Example 27, (3S)—N-[3-[2-(2-hydroxypropan-2-yl)-6-(morpholin-4-yl)pyridin-4-yl]-4-methylphenyl]-3-(2,2,2-trifluoroethyl)pyrrolidine-1-carboxamide]",10 to 100
19,"Cc1ccc(NC(=O)N2CC[C@@H](CC(F)(F)F)C2)cc1-c1cc(-c2ccnc(N)n2)nc(N2CCOCC2)c1 [Example 45, (3S)—N-[3-[2-(2-aminopyrimidin-4-yl)-6-(morpholin-4-yl)pyridin-4-yl]-4-methylphenyl]-3-(2,2,2-trifluoroethyl)pyrrolidine-1-carboxamide]",1 to 10
20,"Cc1ccc(NC(=O)N2CC[C@@H](CC(F)(F)F)C2)cc1-c1cc(-c2nncn2C)nc(N2CCOCC2)c1 [Example 61, (3S)—N-{4-methyl-3-[2-(4-methyl-1,2,4-triazol-3-yl)-6-(morpholin-4-yl)pyridin-4-yl]phenyl}-3-(2,2,2-trifluoroethyl)pyrrolidine-1-carboxamide]",1 to 10
21,"Cc1cc(F)c(NC(=O)N2CC[C@@H](C(F)(F)C(F)(F)F)C2)cc1-c1cc(-c2cnn(C)c2)nc(N2CCOCC2)c1 (single isomer, unassigned) [Example 80]",1 to 10
22,"Cc1ccc(NC(=O)N2CC=C(C(F)(F)F)C2)cc1-c1cc(-c2cnn(C)c2)nc(N2CCOCC2)c1 [Example 66, N-{4-methyl-3-[2-(1-methylpyrazol-4-yl)-6-(morpholin-4-yl)pyridin-4-yl]phenyl}-3-(trifluoromethyl)-2,5-dihydropyrrole-1-carboxamide]",< 1
23,"Cc1cc(F)c(NC(=O)N2CCO[C@@H](C(F)(F)F)C2)cc1-c1cc(-c2cnn(C)c2)nc(N2CCOCC2)c1 [Example 68, (2R)—N-{2-fluoro-4-methyl-5-[2-(1-methylpyrazol-4-yl)-6-(morpholin-4-yl)pyridin-4-yl]phenyl}-2-(trifluoromethyl)morpholine-4-carboxamide]",< 1
24,"Cc1ccc(NC(=O)N2CC[C@@H](CC(F)(F)F)C2)cc1-c1cc(C2CCNC2)nc(N2CCOCC2)c1 (stereo partly drawn) [Example 34, (3S)—N-[4-methyl-3-[2-(morpholin-4-yl)-6-(pyrrolidin-3-yl)pyridin-4-yl]phenyl]-3-(2,2,2-trifluoroethyl)pyrrolidine-1-carboxamide]",< 1
25,"Cc1cc(-c2cc(NC(=O)N3CC[C@@H](CC(F)(F)F)C3)ccc2C)cc(N2CCOCC2)n1 [Example 1, (3S)—N-[4-methyl-3-[2-methyl-6-(morpholin-4-yl)pyridin-4-yl]phenyl]-3-(2,2,2-trifluoroethyl)pyrrolidine-1-carboxamide]",1 to 10
26,"Cc1ccc(NC(=O)N2CC[C@@H](CC(F)(F)F)C2)cc1-c1cc(-c2ccnn2C)nc(N2CCOCC2)c1 [Example 49, (3S)—N-[4-methyl-3-[2-(2-methylpyrazol-3-yl)-6-(morpholin-4-yl)pyridin-4-yl]phenyl]-3-(2,2,2-trifluoroethyl)pyrrolidine-1-carboxamide]",< 1
